Data on 27 molecules can be found in patent publication US20080132484A1, “Method for Identifying Inhibitors Using a Homology Model of Polo-Like Kinase 1” (CYCLACEL LIMITED, priority 2003, published 2008).

Entries after “also recorded” stand apart in the source; their conditions may differ. Like-named read-outs stand apart in the source and are kept apart here.

For assay [1], the target named is T1, PLK1 (Homo sapiens, UniProt P53350).
T1 construct: The PLK1 ORF was cloned into pSSP1 such that the resulting PLK1 translation product would have a 19 amino acid N-terminal tag; made in house; host or cells: Sf9 insect cells (baculovirus)
T1 sequence (P53350 whole entry): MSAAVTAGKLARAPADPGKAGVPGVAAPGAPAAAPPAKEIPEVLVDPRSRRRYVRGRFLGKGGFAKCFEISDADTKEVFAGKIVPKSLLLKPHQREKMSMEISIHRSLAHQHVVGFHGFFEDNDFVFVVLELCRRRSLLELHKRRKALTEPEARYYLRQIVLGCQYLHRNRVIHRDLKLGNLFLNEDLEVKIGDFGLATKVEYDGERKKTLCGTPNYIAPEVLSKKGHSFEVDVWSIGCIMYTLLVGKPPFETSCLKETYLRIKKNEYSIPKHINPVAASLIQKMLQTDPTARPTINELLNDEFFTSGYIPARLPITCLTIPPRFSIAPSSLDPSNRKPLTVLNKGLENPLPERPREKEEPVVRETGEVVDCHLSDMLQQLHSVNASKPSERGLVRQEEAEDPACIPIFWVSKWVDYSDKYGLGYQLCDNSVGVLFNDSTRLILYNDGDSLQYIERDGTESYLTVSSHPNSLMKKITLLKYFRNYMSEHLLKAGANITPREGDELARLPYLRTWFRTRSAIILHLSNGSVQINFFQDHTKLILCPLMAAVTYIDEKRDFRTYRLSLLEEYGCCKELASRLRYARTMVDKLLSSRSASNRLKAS
Description: PLK1 kinase assay (CDC25C phosphorylation, [γ-32P]-ATP). Type of assay: biochemical. The conditions noted are these: for inhibition of PLK1: even at concentrations as high as 1 mM; for inhibition of PLK1 function: at concentrations up to 0.2 mM. As for the experimental part: PLK1 kinase activity was assayed using human CDC25C phosphatase as a substrate. The assays were carried out using 96-well microtitre plates by incubating CDC25C (2 μg/well) with 1 μg/well of purified human recombinant PLK1 and varying concentrations of the candidate compound in a total volume of […] of 20 mM Tris/HCl buffer pH 7.5, supplemented with 25 mM β-glycerophosphate, 5 mM EGTA, 1 mM DTT, and 1 mM NaVO3. Reaction was initiated by the addition of 100 μM ATP and 0.5 μCi of [γ-^32P]-ATP. The reaction mixture was incubated at 30° C. for 1 h, then stopped with 75 mM aq orthophosphoric acid, transferred onto a 96-well P81 filter plate (Whatman), dried, and the extent of CDC25C phosphorylation was assessed by scintillation counting using a Packard TopCount plate reader.
Adenosine, N-ethyhnaleimide, iodoacetamide, and thimerosal were obtained from Sigma Chemical Co. 2′-Thioadenosine was obtained from Calbiochem. […] All compounds were made up as 10 mM stocks in neat dimethylsulfoxide and fresh dilutions to the desired concentrations were made in assay buffer prior to the assay. The candidate compounds were incubated with the enzyme in the kinase assay buffer for the duration of the assay, usually 1 hour at 30° C. […] For each compound duplicate samples, one of which contained dithiothreitol (DTT) at 1 mM final concentration, were assayed.

The target of another assay is PKA (Homo sapiens, UniProt P17612). The note with it: Table 14, published values; cited from earlier work.
Another assay deals with T2, Human recombinant CKII (Homo sapiens, UniProt P68400).
T2 construct: purchased New England Biolabs
T2 sequence (P68400 whole entry): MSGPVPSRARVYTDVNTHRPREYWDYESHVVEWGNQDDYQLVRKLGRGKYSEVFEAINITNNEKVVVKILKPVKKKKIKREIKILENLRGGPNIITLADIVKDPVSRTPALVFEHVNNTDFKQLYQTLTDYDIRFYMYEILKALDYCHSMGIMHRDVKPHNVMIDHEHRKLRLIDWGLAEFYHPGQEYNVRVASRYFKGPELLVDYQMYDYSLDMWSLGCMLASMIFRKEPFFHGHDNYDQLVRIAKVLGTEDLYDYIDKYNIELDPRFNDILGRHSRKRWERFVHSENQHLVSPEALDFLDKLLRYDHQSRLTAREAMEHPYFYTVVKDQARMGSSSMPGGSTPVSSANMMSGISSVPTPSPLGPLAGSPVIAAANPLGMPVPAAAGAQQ
T2 sequence (P67870 whole entry partner): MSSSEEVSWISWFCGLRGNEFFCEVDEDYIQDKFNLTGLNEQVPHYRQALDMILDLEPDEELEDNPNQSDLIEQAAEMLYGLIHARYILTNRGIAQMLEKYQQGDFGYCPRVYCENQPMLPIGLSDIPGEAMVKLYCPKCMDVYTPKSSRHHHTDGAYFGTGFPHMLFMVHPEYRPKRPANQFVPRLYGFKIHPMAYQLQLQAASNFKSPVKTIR
The assay is described as follows: Casein Kinase II (CKII) assay. Format: biochemical. The conditions noted are these: at concentrations up to 0.2 mM. As for the experimental part: Reaction was initiated by the addition of 100 μM ATP and 0.25 μCi of [γ-^32P]-ATP. The reaction mixture was incubated at 30° C. for 15 minutes, then stopped with 75 mM aq orthophosphoric acid, transferred onto a 96-well P81 filter plate (Whatman), dried, and the extent of peptide phosphorylation was assessed by scintillation counting using a Packard TopCount plate reader.

The target of assay [2] is T1, PLK1. Description: Kinetic analysis of PLK1 inhibition (ATP dependence). Format: biochemical.
In a further assay the target is CDK2 (Homo sapiens, UniProt P24941). The assay is described as follows: CDK2 inhibition. Format: biochemical. The conditions noted are these: Table 12.
Where [3] appears, read: Kinase inhibition, flavonoid compounds, read-out: Plk1 IC50.
Where [4] appears, read: Table 14, read-out: Plk1 (IC50).
The mark [5] stands for this setting: read-out: IC50 with respect to PLK1.
The mark [6] stands for this setting: in the absence of dithiothreitol, read-out: IC50 (μM) − DTT.
[7] abbreviates: in the presence of dithiothreitol (1 mM), read-out: IC50 (μM) + DTT.

Consider `O=c1c(O)c(-c2cc(O)c(O)c(O)c2)oc2cc(O)ccc12` [robinetin], for which the “PLK1 inhibition, result in words” value on PLK1 [1] is on record as “weak inhibition”. For the same molecule, the IC50 on PLK1 [1] (setting [3]) is 60 µM.

`O=c1c(O)c(-c2ccc(O)c(O)c2)oc2cc(O)ccc12` [fisetin]: the “PLK1 inhibition, result in words” value on PLK1 [1] is on record as “inactivity”. The IC50 at PLK1 [1] (setting [3]) was > 100 µM.

As to `O=S(=O)(NCCNC/C=C/c1ccc(Br)cc1)c1cccc2cnccc12` [Inhibitor H89], the “inhibition of PLK1” value on PLK1 [1] is “none of these compounds caused any inhibition”.

For the molecule `Cc1ncc2ccccc2c1C#N` [4-Cyano-3-methylisoquinoline], the IC50 on PKA is 0.03 µM; at PLK1 [1] (setting [4]) it was > 500 µM. Besides, the “inhibition of PLK1” value on PLK1 [1] is reported as “none of these compounds caused any inhibition”.

For the molecule `CNc1nc(C)c(-c2ccnc(Nc3ccc(O)cc3)n2)s1` [4-[4-(4-methyl-2-methylamino-thiazol-5-yl)-pyrimidin-2-ylamino]-phenol], the IC50 at PLK1 [1] (setting [5]) was determined as 4 µM.

On to `O=c1c(O)c(-c2ccccc2)oc2cc(O)cc(O)c12` [gangolin], for which the “PLK1 inhibition, result in words” value on PLK1 [1] is “inactivity”.

For `CCN1C(=O)C=CC1=O` [N-ethylmaleimide], the “inhibition of CKII enzymatic activity” value on Human recombinant CKII is “No significant inhibition”. Also, the “PLK1 inhibition, result in words” value on PLK1 [1] was “to some extent”. The IC50 at PLK1 [1] (setting [6]) is 55 µM; at PLK1 [1] (setting [7]), > 200 µM.

With `O=C(N[C@@H]1CNCCC[C@H]1OC(=O)c1cc(O)c(C(=O)c2c(O)cccc2C(=O)O)c(O)c1)c1ccc(O)cc1` [Balanol], the “PLK1 inhibition, result in words” value at PLK1 [1] is “no detectable inhibition”. Besides, the IC50 at PLK1 [1] (setting [4]) was > 200 µM.

As for `Nc1ncnc2c1ncn2[C@@H]1O[C@H](CS)[C@@H](O)[C@H]1O` [5′-Thioadenosine, 5′-Deoxy-5′-thioadenosine], at Human recombinant CKII, the “inhibition of CKII enzymatic activity” value was “No significant inhibition”. On PLK1 [1], the “potency relative to 2′-thioadenosine on PLK1” value is listed as “about 3 fold”. Moreover, the “inhibition of PLK1 function” value at PLK1 [1] is “did”. In addition, the IC50 is 39 µM at PLK1 [1] (setting [6]) and > 200 µM on PLK1 [1] (setting [7]). Further, the “mode of PLK1 inhibition with respect to ATP” value (“mode of PLK1 inhibition” below) is “none of these compounds were classical competitive inhibitors” on PLK1 [2] (listed as 5-′thioadenosine) and “dependent on ATP concentration but not competitive with ATP” on PLK1 [2] (listed as 5′-thioadenosine).

With `Cl.NCCNS(=O)(=O)c1cccc2c(Cl)cccc12` [Inhibitor A3], the results for the IC50 on PKA and on PLK1 [1] (setting [4]) were 11 µM and > 500 µM, respectively. Besides, the “inhibition of PLK1” value against PLK1 [1] is listed as “none of these compounds caused any inhibition”.

Regarding `CCCCCCOC(=O)[C@]1(O)C[C@@H]2O[C@@]1(C)n1c3ccccc3c3c4c(c5c6ccccc6n2c5c31)C(=O)NC4` [KT5720], the IC50 was 0.056 µM at PKA and > 500 µM on PLK1 [1] (setting [4]). Further, the “inhibition of PLK1” value at PLK1 [1] is given as “none of these compounds caused any inhibition”.

On to `Nc1ncnc2c1ncn2[C@@H]1O[C@H](CO)[C@@H](O)[C@H]1S` [2′-Thioadenosine], for which, on Human recombinant CKII, the “inhibition of CKII enzymatic activity” value is on record as “No significant inhibition”. On PLK1 [1], the “inhibition of PLK1 function” value was “did”. The IC50 at PLK1 [1] (setting [6]) is 120 µM; on PLK1 [1] (setting [7]), > 200 µM. In addition, the “mode of PLK1 inhibition” value on PLK1 [2] was “none of these compounds were classical competitive inhibitors”.

As for `O=c1c(O)c(-c2ccccc2O)oc2cc(O)cc(O)c12` [Datescefin], the IC50 on PLK1 [1] (setting [3]) is > 100 µM.

Consider `Nc1ncnc2c1ncn2[C@@H]1O[C@H](CO)[C@@H](O)[C@H]1O` [Adenosine], for which the “inhibition of CKII enzymatic activity” value at Human recombinant CKII is “No significant inhibition”. Besides, the “inhibition of PLK1 function” value on PLK1 [1] is reported as “did not inhibit”. Moreover, the IC50 on PLK1 [1] (setting [6]) and at PLK1 [1] (setting [7]) was > 200 µM throughout. Moreover, on PLK1 [2], the “mode of PLK1 inhibition” value was “none of these compounds were classical competitive inhibitors”.

Turning to `COC[C@H]1OC(=O)c2coc3c2[C@@]1(C)C1=C(C3=O)[C@@H]2CCC(=O)[C@@]2(C)C[C@H]1OC(C)=O` [Wortmannin], the IC50 against CDK2 is > 10 µM. At PLK1 [1], the “PLK1 inhibition, result in words” value is recorded as “very potent inhibitor”. Moreover, the “mode of PLK1 inhibition” value on PLK1 [2] is “totally independent of ATP; also recorded: completely ATP-independent”.

Take `C[CH2][Hg][S]c1ccccc1C(=O)[O-].[Na+]` [Thimerosal]: the “inhibition of CKII enzymatic activity” value on Human recombinant CKII is given as “No significant inhibition”. For the same molecule, at PLK1 [1], the “PLK1 inhibition, result in words” value was “to some extent”. Also, the figures for the IC50 at PLK1 [1] (setting [6]) and at PLK1 [1] (setting [7]) were 22 µM and > 200 µM, respectively. Further, the “mode of PLK1 inhibition” value at PLK1 [2] is given as “none of these compounds were classical competitive inhibitors”.

Regarding `O=c1cc(-c2ccc(O)c(O)c2)oc2cc(O)cc(O)c12` [Luteolin], the IC50 at PLK1 [1] (setting [3]) was > 100 µM.

Take `COc1ccc(-c2oc3cc(O)cc(O)c3c(=O)c2O)cc1` [kaempferide]: the “PLK1 inhibition, result in words” value on PLK1 [1] was “inactivity”. For the same molecule, the IC50 at PLK1 [1] (setting [3]) is > 100 µM.

For `O=c1c(-c2ccc(O)cc2)coc2cc(O)ccc12` [daidzein], the “PLK1 inhibition, result in words” value on PLK1 [1] was “inactivity”. Besides, on PLK1 [1] (setting [3]), the IC50 was > 100 µM.

Turning to `O=c1c(O)c(-c2ccc(O)cc2)oc2cc(O)cc(O)c12` [kaepmpferol], the “PLK1 inhibition, result in words” value on PLK1 [1] is “lack of inhibition”.

Take `NC(=O)CI` [Iodoacetamide]: the “inhibition of CKII enzymatic activity” value on Human recombinant CKII was “No significant inhibition”. The “PLK1 inhibition, result in words” value at PLK1 [1] was “to some extent”. Further, the IC50 at PLK1 [1] (IC50 (μM) + DTT, in the presence of dithiothreitol (1 mM)) was > 200 µM; on PLK1 [1] (IC50 (μM) − DTT, in the absence of dithiothreitol), 83 µM.

`O=c1c(O)c(-c2ccccc2O)oc2cc(O)cc(O)c12` [Datescetin]: the “PLK1 inhibition, result in words” value at PLK1 [1] was “inactive”.

Turning to `O=c1c(O)c(-c2ccccc2)oc2cc(O)cc(O)c12` [Galangin], the IC50 at PLK1 [1] (setting [3]) is > 100 µM.

Take `O=c1c(O)c(-c2ccc(O)cc2)oc2cc(O)cc(O)c12` [Kaempferol]: the IC50 at PLK1 [1] (setting [3]) is > 100 µM.

As for `O=c1c(O)c(-c2ccc(O)cc2O)oc2cc(O)cc(O)c12` [morin hydrate], at PLK1 [1], the “PLK1 inhibition, result in words” value is recorded as “the most potent in the flavonoid series”. The IC50 amounted to 12.6 ± 1.4 µM on PLK1 [1] (setting [3]) and 12 µM on PLK1 [1] (setting [5]).

As for Purvalanol A, the IC50 is > 100 µM on PKA; 5 µM on PLK1 [1] (Table 12, read-out: Plk1 IC50); 10 µM at PLK1 [1] (setting [4]). Also, the “PLK1 inhibition, result in words” value at PLK1 [1] was “moderate inhibition”.

`O=c1c(O)c(-c2cc(O)c(O)c(O)c2)oc2cc(O)cc(O)c12` [Myricetin]: the “PLK1 inhibition, result in words” value on PLK1 [1] was “lack of inhibition”. The IC50 on PLK1 [1] (setting [3]) and at PLK1 [1] (setting [5]) was > 100 µM in each case.

The IC50 is the concentration that inhibits the measured activity by half.
